US20110306606A1, “NOVEL 2,6-SUBSTITUTED-3-NITROPYRIDINE DERIVATIVE, METHOD FOR PREPARING SAME, AND PHARMACEUTICAL COMPOSITION INCLUDING SAME” (priority 2008, published 2011)

These compounds were tested on Osteoblasts (Calvarial cells). Settings: ICR, mouse, 72 h, 1 μM.
Method: For the preparation of osteoblasts (Calvarial cells), the calvaria were aseptically dissected from 1 to 2-day-old neonatal ICR mice and subjected to continuous reaction with a 0.2% collagenase solution to separate osteoblasts. The cell-suspended supernatant was centrifuged to recover osteoblasts which were grown to full confluence in an α-MEM supplemented with 10% FBS and then diluted to a desired cell density for use in the experiment.
Cytotoxicity of the compounds of the present invention was evaluated by carrying out the experiment described below.
The vehicle control group was established to contain 0.2% DMSO. 100 μL/well of the diluted drugs were dispensed into 96-well plates to which osteoblasts (calvarial cells) prepared in Experimental Example 1 were then added at a density of 1.0×10^4 cells/100 μL/well. Here, the final compound concentration in the cell culture was 1 μM, and the vehicle control group contained 0.1% DMSO. The cells were cultured in a 5% CO2 inhibitor at 37° for 72 hours. 25 μL of 3-(4,5-dimethyl-2-thiazolyl)-2,5-diphenyl-2H-tetrazolium bromide (MTT) dissolved in PBS (2 mg/mL) was added to each cell culture 4 hours before the end of culture. After completion of the reaction, the plates were centrifuged, the media were discarded, and 100 μL of formazan was added and dissolved in dimethyl sulfoxide (DMSO). Finally, the absorbance of the developed plates was measured at 540 nm. The cell viability was expressed as % concentration in comparison with the vehicle control group.
In the case of `CC(C)Nc1ccc([N+](=O)[O-])c(Nc2cccc(N)c2)n1` [Compound 71, 2-[3-(amino)phenylamino]-6-(isopropylamino)-3-nitropyridine], the “Cell viability (%) Calvarial cell” value is reported as 114%. `CC(C)CNc1ccc([N+](=O)[O-])c(Nc2cccc(N)c2)n1` [Compound 72, 2-[3-(amino)phenylamino]-6-(isobutylamino)-3-nitropyridine] was tested, and the “Cell viability (%) Calvarial cell” value was 106%. For `CC(C)(C)Nc1ccc([N+](=O)[O-])c(Nc2cccc(N)c2)n1` [Compound 73, 2-[3-(amino)phenylamino]-6-(t-butylamino)-3-nitropyridine], the “Cell viability (%) Calvarial cell” value was 102%. With `Nc1cccc(Nc2nc(N3CCC(O)CC3)ccc2[N+](=O)[O-])c1` [Compound 74, 2-[3-(amino)phenylamino]-6-(4-hydroxypiperidino)-3-nitropyridine] the “Cell viability (%) Calvarial cell” value was 93%. With `CC(C)c1nccn1-c1ccc([N+](=O)[O-])c(Nc2cccc(N)c2)n1` [Compound 75, 2-[3-(amino)phenylamino]-6-[(2-isopropyl)imidazol-1-yl]-3-nitropyridine] the “Cell viability (%) Calvarial cell” value was 103%. In the case of `Nc1cccc(Nc2nc(N3CCNCC3)ccc2[N+](=O)[O-])c1` [Compound 76, 2-[3-(amino)phenylamino]-6-(piperazin-1-yl)-3-nitropyridine], the “Cell viability (%) Calvarial cell” value is reported as 102%. For `CN1CCN(c2ccc([N+](=O)[O-])c(Nc3cccc(N)c3)n2)CC1` [Compound 77, 2-[3-(amino)phenylamino]-6-(4-methylpiperazin-1-yl)-3-nitropyridine], the “Cell viability (%) Calvarial cell” value was 100%. `Nc1cccc(Nc2nc(N3CCOCC3)ccc2[N+](=O)[O-])c1` [Compound 78, 2-[3-(amino)phenylamino]-6-morpholino-3-nitropyridine] was tested, and the “Cell viability (%) Calvarial cell” value was 93%. In the case of `Nc1cccc(Nc2nc(NCCCn3ccnc3)ccc2[N+](=O)[O-])c1` [Compound 82, 2-[3-(amino)phenylamino]-6-[(3-imidazol-1-yl)propylamino]-3-nitropyridine], the “Cell viability (%) Calvarial cell” value is reported as 106%. `Cc1nccn1-c1ccc([N+](=O)[O-])c(Nc2cccc(N)c2)n1` [Compound 85, 2-[3-(amino)phenylamino]-6-[(2-methyl)imidazol-1-yl]-3-nitropyridine] was tested, and the “Cell viability (%) Calvarial cell” value was 101%. `CC(C)CNc1ccc([N+](=O)[O-])c(Nc2ccc(-n3ccnc3)cc2)n1` [Compound 88, 2-[4-(imidazol-1-yl)phenylamino]-6-(isobutylamino)-3-nitropyridine] was tested, and the “Cell viability (%) Calvarial cell” value was 96%. `CC(=O)c1cccc(Nc2nc(NCC(C)C)ccc2[N+](=O)[O-])c1` [Compound 98, 2-(3-acetylphenylamino)-6-(isobutylamino)-3-nitropyridine] was tested, and the “Cell viability (%) Calvarial cell” value was 92%. For `CC(C)Nc1ccc([N+](=O)[O-])c(Nc2ccc(N3CCOCC3)cc2)n1` [Compound 109, 2-(4-morpholinophenylamino)-6-(isopropylamino)-3-nitropyridine], the “Cell viability (%) Calvarial cell” value was 101%. `CC(C)c1nccn1-c1ccc([N+](=O)[O-])c(Nc2ccc(N3CCOCC3)cc2)n1` [Compound 114, 2-(4-morpholinophenylamino)-6-[(2-isopropyl)imidazol-1-yl]-3-nitropyridine] was tested, and the “Cell viability (%) Calvarial cell” value was 92%. With `O=[N+]([O-])c1ccc(NCc2ccncc2)nc1Nc1ccc(N2CCOCC2)cc1` [Compound 116, 2-(4-morpholinophenylamino)-6-[(4-pyridyl)methylamino]-3-nitropyridine] the “Cell viability (%) Calvarial cell” value was 89%. `CC(C)(C)Nc1ccc([N+](=O)[O-])c(Nc2ccc(N3CCOCC3)cc2)n1` [Compound 117, 2-(4-morpholinophenylamino)-6-(t-butylamino)-3-nitropyridine] was tested, and the “Cell viability (%) Calvarial cell” value was 90%. For `CNc1ccc([N+](=O)[O-])c(Nc2ccc(F)c(F)c2)n1` [Compound 122, 2-[(3,4-difluoro)phenylamino]-6-(methylamino)-3-nitropyridine], the “Cell viability (%) Calvarial cell” value was 121%. In the case of `CC(C)Nc1ccc([N+](=O)[O-])c(Nc2ccc(F)c(F)c2)n1` [Compound 123, 2-[(3,4-difluoro)phenylamino]-6-(isopropylamino)-3-nitropyridine], the “Cell viability (%) Calvarial cell” value is reported as 112%.
